The text below walks through data of PubChem BioAssay (NCI).

Some test systems named below: A549 NSCLC; M14 melanoma; NCI-H522 lung; OVCAR-3 ovarian; HOP-62 NSCLC; OVCAR-8 ovarian; UO-31 renal; RXF 393 renal; SK-MEL-28 melanoma.
Assay in all cases: DTP human tumour cell line panel, 48 h

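In this assay, cells in 96-well plates receive the compound at five concentrations for 48 hours. Endpoints are linearly interpolated between the surrounding concentrations. Here, GI50 denotes the concentration required for 50% inhibition of growth. At the TGI there is no net growth.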 Where only a bound is given, the exact number is not on record here.

`CC[C@@]1(O)C(=O)OCc2c1cc1n(c2=O)Cc2cc3c([N+](=O)[O-])c(O)ccc3nc2-1`: the 50% growth inhibitory concentration (GI50) is 0.426 µM in the assay on A549 NSCLC; 0.188 µM in the assay on M14 melanoma; 0.132 µM with NCI-H522 lung; 1.6 µM in the assay with OVCAR-3 ovarian; 0.026 µM in the assay on HOP-62 NSCLC; 0.249 µM with OVCAR-8 ovarian. The GI50 in the assay on UO-31 renal was 0.303 µM; in the assay on RXF 393 renal, 0.328 µM; in the assay on SK-MEL-28 melanoma it was 2.75 µM. The TGI with A549 NSCLC came to 18.3 µM; in the assay with M14 melanoma it was 2.47 µM; in the assay with NCI-H522 lung, 3.07 µM; in the assay with OVCAR-3 ovarian it was 8.26 µM; in the assay on HOP-62 NSCLC, 0.0964 µM; in the assay with OVCAR-8 ovarian it was 12.7 µM. For the same molecule, the concentration for total growth inhibition (TGI) in the assay on UO-31 renal turned out to be 2.3 µM; with RXF 393 renal it was 2.05 µM; in the assay on SK-MEL-28 melanoma, 35.5 µM.

Take `CC1=CC[C@@H]2[C@@H](CC[C@@]2(C)O)C(C)(C)[C@H]1CC[C@@H]1[C@@]2(C)CC[C@@H](O)C(C)(C)O[C@@H]2CC[C@]1(C)O`: the concentration for total growth inhibition (TGI) with A549 NSCLC was over 100 µM; in the assay on M14 melanoma, 61.9 µM; in the assay on OVCAR-3 ovarian, over 100 µM; with HOP-62 NSCLC, 75.4 µM; with UO-31 renal, 34.3 µM; with SK-MEL-28 melanoma it was 35.7 µM.

Turning to `Cc1cc(Cl)ccc1NC(=O)C1C(=O)C(=O)N(c2ccc(Cl)cc2C)C1=O` (stereo unspecified), the TGI in the assay on A549 NSCLC, in the assay on M14 melanoma, in the assay on NCI-H522 lung, in the assay with OVCAR-3 ovarian, in the assay with HOP-62 NSCLC and in the assay with OVCAR-8 ovarian was over 100 µM each time. The concentration for total growth inhibition (TGI) with UO-31 renal and with SK-MEL-28 melanoma was over 100 µM each time.

`[O-]c1ccccc1[C-]=Nc1ccccc1O.[O-]c1ccccc1[C-]=Nc1ccccc1O.[O]=[U]=[O]`: the GI50 with A549 NSCLC is 16.2 µM; in the assay on M14 melanoma, 10.2 µM; in the assay on NCI-H522 lung, 4.01 µM; in the assay on OVCAR-3 ovarian it was 4.13 µM; in the assay on HOP-62 NSCLC it was 19.9 µM; in the assay on OVCAR-8 ovarian, 14.8 µM. The results for the GI50 with RXF 393 renal and in the assay with SK-MEL-28 melanoma were 20.1 µM and 14 µM, respectively. The total growth inhibition concentration (TGI) with A549 NSCLC came out at 43.9 µM; in the assay with M14 melanoma, 41.7 µM; with NCI-H522 lung, 51.8 µM; with OVCAR-3 ovarian, 29.5 µM; in the assay with HOP-62 NSCLC, 57.4 µM; in the assay with OVCAR-8 ovarian it was 66.7 µM. Moreover, the total growth inhibition concentration (TGI) was determined as 45.5 µM with RXF 393 renal and 35.9 µM in the assay with SK-MEL-28 melanoma.

As to `O=c1/c(=C/c2ccccc2O)sc2nc3ccccc3n12`, the TGI with A549 NSCLC is over 100 µM; in the assay with M14 melanoma it was over 100 µM; in the assay with OVCAR-3 ovarian, 98.7 µM; in the assay on OVCAR-8 ovarian, over 100 µM; with UO-31 renal, over 100 µM; in the assay with RXF 393 renal, 57.9 µM. This molecule also showed a concentration for total growth inhibition (TGI) with SK-MEL-28 melanoma of 71.6 µM.

In the case of `COC(=O)c1ccc(CS(=O)(=O)c2ccccc2)cc1`, the TGI in the assay on A549 NSCLC, in the assay on M14 melanoma, in the assay on OVCAR-3 ovarian, in the assay with HOP-62 NSCLC, in the assay with OVCAR-8 ovarian and in the assay on UO-31 renal was over 100 µM each time. Also, the TGI in the assay on RXF 393 renal and in the assay with SK-MEL-28 melanoma was over 100 µM in each case.

As to `CC1(OCc2ccccc2)C(=O)N2C1N(C(=O)OCc1ccccc1)CC2(C)C` (stereo unspecified), the total growth inhibition concentration (TGI) in the assay on A549 NSCLC, in the assay on M14 melanoma, in the assay with OVCAR-3 ovarian, in the assay on HOP-62 NSCLC, in the assay with OVCAR-8 ovarian and in the assay on UO-31 renal was over 100 µM in each case. Besides, the total growth inhibition concentration (TGI) with RXF 393 renal and with SK-MEL-28 melanoma was over 100 µM in each case.

`CC(=O)CC(=O)ON(C)C(C)=O`: the TGI with A549 NSCLC, in the assay with M14 melanoma, in the assay on NCI-H522 lung, with OVCAR-3 ovarian, in the assay on HOP-62 NSCLC and in the assay on OVCAR-8 ovarian was over 100 µM each time. Further, the TGI with UO-31 renal, in the assay with RXF 393 renal and with SK-MEL-28 melanoma was over 100 µM each time.

Turning to `O=C1C2c3[nH]c4ccccc4c3C3CCC(c4ccccc4)CC3C2C(=O)N1c1ccccc1` (stereo unspecified), the total growth inhibition concentration (TGI) with A549 NSCLC, with M14 melanoma, with OVCAR-3 ovarian, with OVCAR-8 ovarian, in the assay with UO-31 renal and in the assay on RXF 393 renal was over 100 µM in each case. In the assay with SK-MEL-28 melanoma, the concentration for total growth inhibition (TGI) was over 100 µM.

For `Clc1cc(Cl)cc(C2SCc3nc4ccccc4n32)c1` (stereo unspecified), the concentration for total growth inhibition (TGI) was 76.1 µM with A549 NSCLC; 39.3 µM with NCI-H522 lung; 38.3 µM with OVCAR-3 ovarian; 33.2 µM with OVCAR-8 ovarian; 43.5 µM with UO-31 renal; 28.2 µM in the assay with RXF 393 renal. In addition, the concentration for total growth inhibition (TGI) in the assay with SK-MEL-28 melanoma came to 36.1 µM.

As to `CCCCN1C(=O)C2c3[nH]c4ccccc4c3C3CCCCC3C2C1=O` (mixture of isomers), the concentration for total growth inhibition (TGI) with A549 NSCLC was 45 µM; in the assay on M14 melanoma, 42.8 µM; in the assay with OVCAR-3 ovarian it was 28.9 µM; in the assay with HOP-62 NSCLC, 19.4 µM; in the assay with OVCAR-8 ovarian it was 58.8 µM; with UO-31 renal it was 47.5 µM. In addition, in the assay with SK-MEL-28 melanoma, the TGI is over 100 µM.

As to `CC12CCC(=O)N1c1cc([N+](=O)[O-])ccc1N2` (stereo unspecified), the TGI in the assay on A549 NSCLC, in the assay with M14 melanoma, in the assay with NCI-H522 lung, in the assay with OVCAR-3 ovarian, with HOP-62 NSCLC and with OVCAR-8 ovarian was over 100 µM in each case. Moreover, the TGI with UO-31 renal, with RXF 393 renal and in the assay with SK-MEL-28 melanoma was over 100 µM each time.

With `CN(C(=N)c1ccccc1)c1ccccc1`, the concentration for total growth inhibition (TGI) with A549 NSCLC, in the assay with M14 melanoma, in the assay on OVCAR-3 ovarian, in the assay on OVCAR-8 ovarian, in the assay on UO-31 renal and in the assay on SK-MEL-28 melanoma was over 100 µM in each case.

As to `Cc1ccc2oc(=O)cc(CC(=O)O)c2c1`, the TGI in the assay with A549 NSCLC, with M14 melanoma, with NCI-H522 lung, in the assay on OVCAR-3 ovarian, with HOP-62 NSCLC and in the assay on OVCAR-8 ovarian was over 100 µM each time. Also, the total growth inhibition concentration (TGI) with RXF 393 renal and in the assay with SK-MEL-28 melanoma was over 100 µM each time.

With `C[C@]12CC[C@H](OC(=O)Cc3ccc(N(CCCl)CCCl)cc3)CC1CC[C@@H]1C2CC[C@]2(C)NC(=O)CCC12` (stereo partly specified), the concentration for total growth inhibition (TGI) with A549 NSCLC was 37.5 µM; in the assay with M14 melanoma it was 28.8 µM; in the assay on NCI-H522 lung, 25.4 µM; in the assay on OVCAR-3 ovarian, 14.8 µM; in the assay with UO-31 renal it was over 100 µM; in the assay with RXF 393 renal, 24.3 µM. Also, in the assay with SK-MEL-28 melanoma, the TGI was found to be 31.9 µM.
